The record followed here is US10364247B2, “Preparation and use of novel protein kinase inhibitors” (Ruijin Hospital Affiliated to Shanghai Jiao Tong University …, priority 2015, dated 2019).

Common to all, as to type: cell-based, murine
Test [1] has as its target T1, BaF3-BCR/ABL (Homo sapiens, UniProt P00519).
T1 construct: fused on or other part: P11274 (Breakpoint cluster region protein)
Kind of test: Antiproliferative activity, kinase-dependent Ba/F3 cells (MTT/MTS). Conditions: 48 hours, cell viability, read-out: BCR/ABL IC50. Here is the method: (§1) Following up on the kinome data, the ability of compounds disclosed in the present invention to inhibit proliferation of cells that are dependent on selected protein kinases was tested. […] In addition, compounds were assayed to measure their capacity to inhibit TIE1, LYN, EML4-ALK, INSR and HCK kinases.
(§2) The murine cell line used is the BaF/3 cell line transformed with BCR/ABL cDNA (BaF/3-p210) or BCR/ABL-T315I mutant (Ba/F3-p210-T315I). These cells are maintained in RPMI/10% fetal calf serum (RPMI/FCS) supplemented with penicillin 50 μg/mL, streptomycin 50 μg/mL and L-glutamine […]. Untransformed BaF/3 cells (Wt-BaF/3) are similarly maintained with the addition of 15% of WEHI conditioned medium as a source of IL3.
(§3) Cells were seeded at a density of 20,000 cells/well into 96-well plates.
(§4) The background control wells to which media with no cells added and the vehicle control wells were included on each plate in triplicate. Cell viability was determined using MTT (Sigma, St. Louis, Mo., USA) and MTS (Promega, Madison, Wis., USA), according to the manufacturer's instructions. Results were analyzed using GraphPad Prism 5.0 (GraphPad Software, San Diego, Calif.) and IC50 values were calculated from cell viability dose-response curves and defined as the concentration of compound needed to reduce cell viability to 50% of a vehicle control (DMSO) (Table 3).

In test [2] the target is T2, BaF3-BCR/ABL-T315I (Homo sapiens, UniProt P00519, T315I, cells depend on it).
T2 construct: fused on or other part: P11274 (Breakpoint cluster region protein)
The description is as above. The conditions noted are these: 48 hours, cell viability, read-out: BCR/ABL T315I IC50. The method, then: as §1, §2, §3, §4

In test [3] the target is T3, BaF3-EML4-ALK (Homo sapiens, UniProt Q9UM73).
T3 construct: fused on or other part: Q9HC35 (Echinoderm microtubule-associated protein-like 4)
The test is described as above. The conditions noted are these: 48 hours, cell viability, read-out: EML4-ALK IC50. The method, then:
as §1, §2, §3, §4
(§5) Cell proliferation assays of compounds of the invention against TIE1, LYN, EML4-ALK, INSR and Hck were conducted using identical methods as described above for BCR/ABL, except that BaF3-TEL-TIE1, BaF3-TEL-LYN, BaF3-EML4-ALK, BaF3-TEL-INSR, and BaF3-TEL-HCK are used instead of BaF3-BCR/ABL (Table 3 and 4).

Test [4] addresses T4, BaF3-TEL-HCK (Homo sapiens, UniProt P08631).
T4 construct: fused on or other part: P41212 (Transcription factor ETV6)
The test is described as above. The conditions noted are these: 48 hours, cell viability, read-out: Tel-HCK IC50. Here is the method: as §1, §2, §3, §4, §5

The target of test [5] is T5, BaF3-TEL-INSR (Homo sapiens, UniProt P06213).
T5 construct: fused on or other part: P41212 (Transcription factor ETV6)
The test is described as above. The conditions noted are these: 48 hours, cell viability, read-out: Tel-INSR IC50. The method, then:
as §1, §2, §3, §4, §5

Test [6] has as its target T6, BaF3-TEL-LYN (Homo sapiens, UniProt P07948).
T6 construct: fused on or other part: P41212 (Transcription factor ETV6)
The test is described as above. Conditions: 48 hours, cell viability, read-out: tel-LYN IC50. Here is the method:
as §1, §2, §3, §4, §5

For test [7], the target named is T7, BaF3-TEL-TIE1 (Homo sapiens, UniProt P35590).
T7 construct: fused on or other part: P41212 (Transcription factor ETV6)
The description is as above. Conditions: 48 hours, cell viability, read-out: tel-TIE1 IC50. Here is the method:
as §1, §2, §3, §4, §5

Test [8] deals with BaF3-KRASD12. Description: Oncogenic RAS dependent cell proliferation (CellTiter Glo). Conditions: Mus musculus, BaF3-KRASD12 cells, 48 hours, read-out: KRas-BaF3 IC50. Here is the method: (§6) The BaF/3 cell line transformed with oncogenic NRAS or KRAS (BaF/3-NRASD12 or BaF/3-KRASD12) and the parental BaF/3 cells were used to measure the abilities of compounds of the invention to suppress RAS transformation (Table 5). Cells were seeded at a density of 5000 cells/well into 96-well plates. […] The background control wells to which media with no cells added and the vehicle control wells were included on each plate in triplicate. Cell viability was determined using CellTiter Glo Assay (Promega) according to manufacture's instruction with a minor modification of diluting 1 part CellTiter Glo reagent to 4 parts phosphate buffered saline (PBS) before use. The luminescence value was read out by an Envision (PerkinElmer).

The test system of test [9] is BaF3-NRASD12. Described as above. The conditions noted are these: Mus musculus, BaF3-NRASD12 cells, 48 hours, read-out: NRas-BaF3 IC50. The method, then:
as §6

In test [10] the test system is Wt-BaF3. Kind of test: Parental Ba/F3 cell proliferation (CellTiter Glo). The conditions noted are these: Mus musculus, parental BaF/3 cells, 48 hours. Here is the method:
as §2, §6

SMILES strings stand for the structures.

T6 sequence (P07948 whole entry, change not shown, the tested form may be a part): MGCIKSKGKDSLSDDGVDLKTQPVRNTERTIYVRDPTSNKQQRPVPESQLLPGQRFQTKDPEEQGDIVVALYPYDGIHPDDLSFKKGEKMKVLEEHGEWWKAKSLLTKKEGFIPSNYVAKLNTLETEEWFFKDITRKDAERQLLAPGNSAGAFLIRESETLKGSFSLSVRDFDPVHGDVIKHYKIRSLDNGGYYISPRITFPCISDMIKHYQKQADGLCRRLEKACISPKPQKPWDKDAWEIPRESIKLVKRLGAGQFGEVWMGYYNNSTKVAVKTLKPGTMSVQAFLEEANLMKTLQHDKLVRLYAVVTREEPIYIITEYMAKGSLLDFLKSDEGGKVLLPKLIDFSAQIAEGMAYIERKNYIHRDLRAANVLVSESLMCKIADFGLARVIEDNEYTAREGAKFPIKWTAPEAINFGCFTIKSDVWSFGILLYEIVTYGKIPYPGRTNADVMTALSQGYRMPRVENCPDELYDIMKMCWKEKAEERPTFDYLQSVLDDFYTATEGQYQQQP
T4 sequence (P08631 whole entry, change not shown, the tested form may be a part): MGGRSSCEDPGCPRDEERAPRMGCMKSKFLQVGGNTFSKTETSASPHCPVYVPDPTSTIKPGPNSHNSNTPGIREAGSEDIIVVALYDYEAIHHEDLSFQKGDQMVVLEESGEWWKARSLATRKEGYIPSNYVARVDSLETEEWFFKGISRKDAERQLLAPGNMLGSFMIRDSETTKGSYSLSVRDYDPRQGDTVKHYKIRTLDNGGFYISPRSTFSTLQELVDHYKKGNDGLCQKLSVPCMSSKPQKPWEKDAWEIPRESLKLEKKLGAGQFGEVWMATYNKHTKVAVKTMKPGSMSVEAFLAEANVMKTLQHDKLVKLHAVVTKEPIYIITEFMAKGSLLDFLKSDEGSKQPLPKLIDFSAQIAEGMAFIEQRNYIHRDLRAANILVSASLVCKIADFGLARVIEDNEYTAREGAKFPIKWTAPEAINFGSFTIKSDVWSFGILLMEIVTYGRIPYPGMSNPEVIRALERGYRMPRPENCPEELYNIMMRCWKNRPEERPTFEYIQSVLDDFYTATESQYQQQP
T7 sequence (P35590 whole entry, change not shown, the tested form may be a part): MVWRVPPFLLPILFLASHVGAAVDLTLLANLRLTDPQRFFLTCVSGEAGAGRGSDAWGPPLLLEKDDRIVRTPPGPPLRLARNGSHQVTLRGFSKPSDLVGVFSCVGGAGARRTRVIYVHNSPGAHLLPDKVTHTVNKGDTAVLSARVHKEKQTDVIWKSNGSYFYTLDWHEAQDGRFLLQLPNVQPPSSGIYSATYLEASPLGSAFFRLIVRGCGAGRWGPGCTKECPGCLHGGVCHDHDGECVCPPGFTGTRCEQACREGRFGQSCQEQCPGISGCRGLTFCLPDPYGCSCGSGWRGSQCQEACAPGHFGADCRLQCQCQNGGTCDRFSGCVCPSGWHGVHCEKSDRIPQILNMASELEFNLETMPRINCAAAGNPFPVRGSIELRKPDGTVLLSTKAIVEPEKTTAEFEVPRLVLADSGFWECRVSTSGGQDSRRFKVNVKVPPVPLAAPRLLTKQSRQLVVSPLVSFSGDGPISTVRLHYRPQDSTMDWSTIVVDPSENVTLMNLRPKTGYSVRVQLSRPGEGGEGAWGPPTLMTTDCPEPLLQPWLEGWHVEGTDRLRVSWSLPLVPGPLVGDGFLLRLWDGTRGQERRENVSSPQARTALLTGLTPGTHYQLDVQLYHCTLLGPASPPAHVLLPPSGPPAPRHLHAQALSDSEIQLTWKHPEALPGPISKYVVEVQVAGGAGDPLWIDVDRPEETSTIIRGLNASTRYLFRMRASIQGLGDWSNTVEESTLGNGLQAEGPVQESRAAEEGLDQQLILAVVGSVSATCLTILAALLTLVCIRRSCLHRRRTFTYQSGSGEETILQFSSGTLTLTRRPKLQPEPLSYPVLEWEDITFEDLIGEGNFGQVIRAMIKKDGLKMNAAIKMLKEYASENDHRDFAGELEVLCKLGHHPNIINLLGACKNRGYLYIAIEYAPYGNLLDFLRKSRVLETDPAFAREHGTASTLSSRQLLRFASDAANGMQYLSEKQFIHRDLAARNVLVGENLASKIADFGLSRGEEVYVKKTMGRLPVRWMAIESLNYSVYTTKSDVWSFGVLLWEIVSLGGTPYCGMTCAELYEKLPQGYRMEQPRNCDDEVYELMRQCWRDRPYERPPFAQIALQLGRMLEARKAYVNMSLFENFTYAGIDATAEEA
T5 sequence (P06213 whole entry, stated change not applied, the tested form may be a part): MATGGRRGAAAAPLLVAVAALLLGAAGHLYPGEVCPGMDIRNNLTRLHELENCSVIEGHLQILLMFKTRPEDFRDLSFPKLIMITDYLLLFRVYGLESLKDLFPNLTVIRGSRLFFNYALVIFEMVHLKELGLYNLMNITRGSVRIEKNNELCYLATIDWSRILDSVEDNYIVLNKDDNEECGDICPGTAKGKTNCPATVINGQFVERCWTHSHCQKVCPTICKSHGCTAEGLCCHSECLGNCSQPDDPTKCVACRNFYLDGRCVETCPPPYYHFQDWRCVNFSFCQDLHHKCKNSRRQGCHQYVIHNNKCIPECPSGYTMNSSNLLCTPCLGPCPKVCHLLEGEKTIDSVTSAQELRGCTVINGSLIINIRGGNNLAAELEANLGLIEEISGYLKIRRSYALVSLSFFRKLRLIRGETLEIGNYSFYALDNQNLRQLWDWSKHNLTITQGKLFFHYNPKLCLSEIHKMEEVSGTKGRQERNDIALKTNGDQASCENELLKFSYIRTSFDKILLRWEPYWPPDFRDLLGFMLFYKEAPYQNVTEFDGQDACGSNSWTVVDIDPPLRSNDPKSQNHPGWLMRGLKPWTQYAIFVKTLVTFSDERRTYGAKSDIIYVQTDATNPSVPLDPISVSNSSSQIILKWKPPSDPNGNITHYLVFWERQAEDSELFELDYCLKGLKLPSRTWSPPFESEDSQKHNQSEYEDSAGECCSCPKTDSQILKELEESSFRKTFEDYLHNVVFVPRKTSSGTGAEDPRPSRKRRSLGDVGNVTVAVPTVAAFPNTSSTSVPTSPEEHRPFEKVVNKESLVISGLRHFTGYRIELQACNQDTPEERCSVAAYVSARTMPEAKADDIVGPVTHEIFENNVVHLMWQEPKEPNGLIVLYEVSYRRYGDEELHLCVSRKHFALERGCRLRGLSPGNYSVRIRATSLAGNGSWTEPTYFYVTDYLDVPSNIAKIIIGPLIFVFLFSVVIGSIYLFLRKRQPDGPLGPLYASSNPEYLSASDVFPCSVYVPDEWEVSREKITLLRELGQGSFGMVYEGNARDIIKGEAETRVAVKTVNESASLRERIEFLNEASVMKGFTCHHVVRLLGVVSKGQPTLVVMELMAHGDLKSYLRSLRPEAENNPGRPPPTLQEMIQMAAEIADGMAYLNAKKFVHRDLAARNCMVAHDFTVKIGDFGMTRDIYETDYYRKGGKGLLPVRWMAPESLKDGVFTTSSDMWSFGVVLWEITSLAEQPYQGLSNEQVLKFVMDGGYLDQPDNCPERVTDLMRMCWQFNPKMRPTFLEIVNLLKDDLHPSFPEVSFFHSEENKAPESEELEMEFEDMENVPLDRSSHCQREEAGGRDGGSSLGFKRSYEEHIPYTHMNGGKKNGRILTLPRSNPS

For the molecule `Cc1ccc(NC(=O)c2cccc(C(F)(F)F)c2)cc1N1Cc2cnc(Nc3ccc(N4CCC(O)CC4)nc3)nc2N(C)C1` [IA-13, N-(3-(7-((6-(4-hydroxypiperidin-1-yl)pyridin-3-yl)amino)-1-methyl-1,4-dihydropyrimido[4,5-d]pyrimidin-3(2H)-yl)-4-methylphenyl)-3-(trifluoromethyl)benzamide], the GI50 in test [1] came out at 5.85 nM; in test [2], 226 nM; in [3], 1870 nM; in [4], 192 nM; in test [5] it was 320 nM; in test [6], 132 nM. For the same molecule, in test [7], the GI50 was determined as 289 nM. Moreover, the IC50 in test [8] amounted to 402 nM; in [9], 501 nM; in test [10], 2340 nM.
On to `Cc1ccc(NC(=O)c2cccc(C(F)(F)F)c2)cc1N1Cc2cnc(NCCN(C)C)nc2N(C)C1` [IA-2, N-(3-(7-((2-(dimethylamino)ethyl)amino)-1-methyl-1,4-dihydropyrimido[4,5-d]pyrimidin-3(2H)-yl)-4-methylphenyl)-3-(trifluoromethyl)benzamide], for which the GI50 was above 10000 nM in test [1]; around 2780 nM in [3]; 2560 nM in test [4]; 1330 nM in test [5]; 1320 nM in test [6]; 1590 nM in test [7]. Besides, the values for the IC50 in [8], in test [9] and in [10] were 3980 nM, 3380 nM and 4540 nM, respectively.
Take `Cc1cc(Nc2ncc3c(n2)N(C)CN(c2cc(NC(=O)c4cccc(C(F)(F)F)c4)ccc2C)C3)n(C)n1` [IA-11, N-(3-(7-((1,3-dimethyl-1H-pyrazol-5-yl)amino)-1-methyl-1,4-dihydropyrimido[4,5-d]pyrimidin-3(2H)-yl)-4-methylphenyl)-3-(trifluoromethyl)benzamide]: the GI50 stood at 7.96 nM in test [1]; 1760 nM in test [2]; 2220 nM in [3]; 1390 nM in [4]; 2280 nM in test [5]; 927 nM in test [6]. Moreover, in test [7], the GI50 was determined as 736 nM. Moreover, the IC50 was 1490 nM in test [8], 1020 nM in [9] and 13500 nM in test [10].
On to `CCN(CC)c1ccc(Nc2ncc3c(n2)N(C)CN(c2cc(NC(=O)c4cccc(C(F)(F)F)c4)ccc2C)C3)cn1` [IA-12, N-(3-(7-((6-(diethylamino)pyridin-3-yl)amino)-1-methyl-1,4-dihydropyrimido[4,5-d]pyrimidin-3(2H)-yl)-4-methylphenyl)-3-(trifluoromethyl)benzamide], for which the GI50 is 205 nM in test [1]; 4500 nM in [2]; 3190 nM in [3]; 3070 nM in [4]; 977 nM in test [5]; 1160 nM in [6]. In addition, the GI50 in test [7] was 1350 nM. Also, the IC50 was 1820 nM in [8], 2300 nM in test [9] and 4110 nM in [10].
For the molecule `COc1cc(C(=O)N2CCN(C)CC2)ccc1Nc1ncc2c(n1)N(C)CN(c1cc(NC(=O)c3cccc(C(F)(F)F)c3)ccc1C)C2` [IA-16, N-(3-(7-((2-methoxy-4-(4-methylpiperazine-1-carbonyl)phenyl)amino)-1-methyl-1,4-dihydropyrimido[4,5-d]pyrimidin-3(2H)-yl)-4-methylphenyl)-3-(trifluoromethyl)benzamide], the GI50 in [1] was 1710 nM; in [2], 4370 nM; in test [3], 1540 nM; in test [4] it was 2880 nM; in test [5], 3960 nM; in test [6] it was 2000 nM. For the same molecule, the GI50 in test [7] is 1580 nM. Besides, the results for the IC50 in [8], in [9] and in test [10] were 4310 nM, 4410 nM and 4420 nM, respectively.
